# Test results: the supplement of paper PMC10307832
# Legend:
# Assay in all cases: relative viability (nuclei count vs DMSO), 5 days (fraction); higher = more cells survive
# 201T = tested on: 201T
# Outline: (§1)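 One day after seeding in 1536-well plates, lung cancer cell lines were dosed by pin tool. Dosing was either single-drug or a fixed anchor-drug dose plus five library-drug doses (not always all listed) in √10 steps. After 5 days, nuclei were stained in one fix-and-stain step and counted on 4× images, and relative viability is the nuclei count of treated wells over that of vehicle wells, given as the median of duplicate plates.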
# BEN = tested on: BEN
# Outline: as §1
# EPLC-272H = tested on: EPLC-272H
# Outline: as §1
# HCC-15 = tested on: HCC-15
# Outline: as §1
# HCC-78 = tested on: HCC-78
# Outline: as §1
# LCLC-97TM1 = tested on: LCLC-97TM1
# Outline: as §1
# LU99A = tested on: LU99A
# Outline: as §1
# NCI-H1355 = tested on: NCI-H1355
# Outline: as §1
# NCI-H1395 = tested on: NCI-H1395
# Outline: as §1
# NCI-H2009 = tested on: NCI-H2009
# Outline: as §1
# NCI-H2085 = tested on: NCI-H2085
# Outline: as §1
# NCI-H2126 = tested on: NCI-H2126
# Outline: as §1
# NCI-H2228 = tested on: NCI-H2228
# Outline: as §1
# NCI-H2342 = tested on: NCI-H2342
# Outline: as §1
# NCI-H23 = tested on: NCI-H23
# Outline: as §1
# NCI-H2405 = tested on: NCI-H2405
# Outline: as §1
# NCI-H322M = tested on: NCI-H322M
# Outline: as §1
# NCI-H460 = tested on: NCI-H460
# Outline: as §1
# NCI-H647 = tested on: NCI-H647
# Outline: as §1
# NCI-H650 = tested on: NCI-H650
# Outline: as §1
# NCI-H661 = tested on: NCI-H661
# Outline: as §1
# NCI-H838 = tested on: NCI-H838
# Outline: as §1
# PC-14 = tested on: PC-14
# Outline: as §1
smiles,measurement,setting,value
CCNC(=O)c1noc(-c2cc(C(C)C)c(O)cc2O)c1-c1ccc(CN2CCOCC2)cc1 [Luminespib] + COc1cc2c(Oc3ccc(NC(=O)C4(C(=O)Nc5ccc(F)cc5)CC4)cc3F)ccnc2cc1OCCCN1CCOCC1 [Foretinib] (partner 0.25 µM),relative viability,201T; first compound 0.002 µM,1.06
same,relative viability,201T; first compound 0.006325 µM,1.07
same,relative viability,201T; first compound 0.02 µM,1.08
same,relative viability,201T; first compound 0.06325 µM,0.173
same,relative viability,201T; first compound 0.2 µM,0.159
same,relative viability,BEN; first compound 0.002 µM,0.63
same,relative viability,BEN; first compound 0.006325 µM,0.71
same,relative viability,BEN; first compound 0.02 µM,0.362
same,relative viability,BEN; first compound 0.06325 µM,0.531
same,relative viability,BEN; first compound 0.2 µM,0.222
same,relative viability,EPLC-272H; first compound 0.002 µM,0.74
same,relative viability,EPLC-272H; first compound 0.006325 µM,0.666
same,relative viability,EPLC-272H; first compound 0.06325 µM,0.625
same,relative viability,EPLC-272H; first compound 0.2 µM,0.0989
same,relative viability,HCC-15; first compound 0.002 µM,1.09
same,relative viability,HCC-15; first compound 0.006325 µM,0.971
same,relative viability,HCC-15; first compound 0.02 µM,1.07
same,relative viability,HCC-15; first compound 0.06325 µM,0.151
same,relative viability,HCC-15; first compound 0.2 µM,0.126
same,relative viability,HCC-78; first compound 0.002 µM,0.627
same,relative viability,HCC-78; first compound 0.006325 µM,0.593
same,relative viability,HCC-78; first compound 0.06325 µM,0.609
same,relative viability,HCC-78; first compound 0.2 µM,0.598
same,relative viability,LCLC-97TM1; first compound 0.002 µM,0.949
same,relative viability,LCLC-97TM1; first compound 0.006325 µM,0.915
same,relative viability,LCLC-97TM1; first compound 0.02 µM,0.935
same,relative viability,LCLC-97TM1; first compound 0.06325 µM,0.952
same,relative viability,LCLC-97TM1; first compound 0.2 µM,0.626
same,relative viability,LU99A; first compound 0.002 µM,0.821
same,relative viability,LU99A; first compound 0.006325 µM,0.758
same,relative viability,LU99A; first compound 0.02 µM,0.527
same,relative viability,LU99A; first compound 0.06325 µM,0.186
same,relative viability,LU99A; first compound 0.2 µM,0.175
same,relative viability,NCI-H1355; first compound 0.002 µM,1.02
same,relative viability,NCI-H1355; first compound 0.006325 µM,0.912
same,relative viability,NCI-H1355; first compound 0.02 µM,0.671
same,relative viability,NCI-H1355; first compound 0.06325 µM,0.927
same,relative viability,NCI-H1355; first compound 0.2 µM,0.622
same,relative viability,NCI-H1395; first compound 0.002 µM,1.04
same,relative viability,NCI-H1395; first compound 0.006325 µM,0.941
same,relative viability,NCI-H1395; first compound 0.02 µM,0.805
same,relative viability,NCI-H1395; first compound 0.06325 µM,0.568
same,relative viability,NCI-H1395; first compound 0.2 µM,0.345
same,relative viability,NCI-H2009; first compound 0.002 µM,1.22
same,relative viability,NCI-H2009; first compound 0.006325 µM,1.16
same,relative viability,NCI-H2009; first compound 0.02 µM,1.33
same,relative viability,NCI-H2009; first compound 0.06325 µM,0.298
same,relative viability,NCI-H2009; first compound 0.2 µM,0.0898
same,relative viability,NCI-H2085; first compound 0.002 µM,1.19
same,relative viability,NCI-H2085; first compound 0.006325 µM,0.896
same,relative viability,NCI-H2085; first compound 0.02 µM,1.07
same,relative viability,NCI-H2085; first compound 0.06325 µM,0.603
same,relative viability,NCI-H2085; first compound 0.2 µM,0.457
same,relative viability,NCI-H2126; first compound 0.002 µM,0.865
same,relative viability,NCI-H2126; first compound 0.006325 µM,1.07
same,relative viability,NCI-H2126; first compound 0.02 µM,0.882
same,relative viability,NCI-H2126; first compound 0.06325 µM,0.589
same,relative viability,NCI-H2126; first compound 0.2 µM,0.207
same,relative viability,NCI-H2228; first compound 0.002 µM,0.776
same,relative viability,NCI-H2228; first compound 0.006325 µM,0.844
same,relative viability,NCI-H2228; first compound 0.02 µM,0.692
same,relative viability,NCI-H2228; first compound 0.06325 µM,0.111
same,relative viability,NCI-H2228; first compound 0.2 µM,0.117
same,relative viability,NCI-H2342; first compound 0.002 µM,1.02
same,relative viability,NCI-H2342; first compound 0.006325 µM,0.991
same,relative viability,NCI-H2342; first compound 0.02 µM,0.656
same,relative viability,NCI-H2342; first compound 0.06325 µM,0.786
same,relative viability,NCI-H2342; first compound 0.2 µM,0.543
same,relative viability,NCI-H23; first compound 0.002 µM,1.26
same,relative viability,NCI-H23; first compound 0.006325 µM,1.03
same,relative viability,NCI-H23; first compound 0.02 µM,0.858
same,relative viability,NCI-H23; first compound 0.06325 µM,0.971
same,relative viability,NCI-H23; first compound 0.2 µM,0.591
same,relative viability,NCI-H2405; first compound 0.002 µM,1.08
same,relative viability,NCI-H2405; first compound 0.006325 µM,0.852
same,relative viability,NCI-H2405; first compound 0.02 µM,1
same,relative viability,NCI-H2405; first compound 0.06325 µM,0.227
same,relative viability,NCI-H2405; first compound 0.2 µM,0.2
same,relative viability,NCI-H322M; first compound 0.002 µM,0.932
same,relative viability,NCI-H322M; first compound 0.006325 µM,0.998
same,relative viability,NCI-H322M; first compound 0.02 µM,0.795
same,relative viability,NCI-H322M; first compound 0.06325 µM,0.323
same,relative viability,NCI-H322M; first compound 0.2 µM,0.3
same,relative viability,NCI-H460; first compound 0.002 µM,1.01
same,relative viability,NCI-H460; first compound 0.006325 µM,1.07
same,relative viability,NCI-H460; first compound 0.02 µM,0.957
same,relative viability,NCI-H460; first compound 0.06325 µM,0.0285
same,relative viability,NCI-H460; first compound 0.2 µM,0.0276
same,relative viability,NCI-H647; first compound 0.002 µM,1.32
same,relative viability,NCI-H647; first compound 0.006325 µM,1.12
same,relative viability,NCI-H647; first compound 0.02 µM,1.32
same,relative viability,NCI-H647; first compound 0.06325 µM,0.131
same,relative viability,NCI-H647; first compound 0.2 µM,0.0972
same,relative viability,NCI-H650; first compound 0.002 µM,1.09
same,relative viability,NCI-H650; first compound 0.006325 µM,0.974
same,relative viability,NCI-H650; first compound 0.02 µM,0.782
same,relative viability,NCI-H650; first compound 0.06325 µM,0.811
same,relative viability,NCI-H650; first compound 0.2 µM,0.149
same,relative viability,NCI-H661; first compound 0.002 µM,1.11
same,relative viability,NCI-H661; first compound 0.006325 µM,0.992
same,relative viability,NCI-H661; first compound 0.02 µM,0.922
same,relative viability,NCI-H661; first compound 0.06325 µM,0.597
same,relative viability,NCI-H661; first compound 0.2 µM,0.301
same,relative viability,NCI-H838; first compound 0.002 µM,1.08
same,relative viability,NCI-H838; first compound 0.006325 µM,1.06
same,relative viability,NCI-H838; first compound 0.02 µM,1.07
same,relative viability,NCI-H838; first compound 0.06325 µM,0.582
same,relative viability,NCI-H838; first compound 0.2 µM,0.148
same,relative viability,PC-14; first compound 0.002 µM,0.967
same,relative viability,PC-14; first compound 0.006325 µM,0.882
same,relative viability,PC-14; first compound 0.02 µM,0.945
same,relative viability,PC-14; first compound 0.06325 µM,0.567
same,relative viability,PC-14; first compound 0.2 µM,0.125
